Results taken from a melting point compilation (Tetko et al.; mined from patent text by program, amines drawn as free bases though some values may be those of a salt).
Residues, ends and D or L forms follow the SMILES beside them. *: point of attachment. Boc = CC(C)(C)OC(=O)*

| SMILES | melting point [°C] |
| --- | --- |
| COC(=O)c1cccc(S(=O)(=O)Cc2c(O)ccc3c2CCCC3=O)c1 | 230 to 232 |
| O=C(NCC(=O)c1ccco1)c1ccc(F)cc1 | 153 to 155 |
| CCc1nnc(-c2ccc(OC)cc2)n1-c1ccccc1 | 118 |
| COc1ccc2[nH]c3c(c4c(c5c6cc(OC)ccc6n(C)c35)C(=O)N(C)C4=O)c2c1 | > 330 |
| O=C(O)c1ccc2cnn(C3CCCC3)c2c1 | 172 to 175 |
| Cc1c(OCc2ccccc2)ccc2c(=O)cc(N3CCN(c4ccccn4)CC3)oc12 | 148 to 149 |
| CC(=C1SC(=O)NC1=O)c1cccc(OCCCOc2c(-c3ccc(F)cc3)n(C)c3ccccc3c2=O)c1 | 168 to 170 |
| CC(C)(S)CNC(=O)COCC(=O)O | 81 to 82 |
| O=C(NCC1CCCCCC1)NCC1CCCCCC1 | 106 to 108 |
| Cc1ccc(C)c(C2CC(=O)C=C(N)C2)c1 (centres undefined) | 169 to 170 |
| COc1ccc(-c2[nH]nc3c2C(=O)c2c(NC(=O)CN4CCC(N)CC4)cccc2-3)cc1 | > 300 |
| CC(C)(C)OC(=O)N1CCc2c(n(CCO)c3c(Cl)cc(Cl)cc23)CC1 | 183 to 184 |
| CC12CCC3c4ccc(O)cc4CCC3C1CCC2=CF (centres undefined) | 125 to 129 |
| CCc1nc2c(C)cc(C)nc2n1Cc1ccc(C(CCNS(=O)(=O)C(F)(F)F)c2ccccc2)cc1 (centres undefined) | 64 to 69 |
| COc1ccc2nc(NC(=O)C(CC3CCCC3)c3ccc(S(=O)(=O)NC4CC4)cc3)sc2n1 (centres undefined) | 235 to 237 |
| CC1CCCC(C)N1S(=O)(=O)N[C@@H](Cc1ccc(NC(=O)c2c(Cl)cccc2Cl)cc1)C(=O)O (some centres undefined) | 159 |
| Cn1c2ccc(F)cc2c(=O)n2nc(C(N)=O)cc12 | > 350 |
| Cc1ccc(-c2cc(C(=O)O)nn2Cc2ccc(C)c(Cl)c2)cc1C | 163 |
| CCOC(=O)COc1c(F)cc(S(=O)CCNS(=O)(=O)c2ccc(Cl)cc2)cc1F (centres undefined) | 137 to 138 |
| CC(=O)Nc1nc(/C=C/C(=O)N2CCN(C(=O)c3cc(C(F)(F)F)cc(C(F)(F)F)c3)[C@H](Cc3c[nH]c4ccccc34)C2)cs1 | 167 to 172 |

| SMILES | melting point [°C] |
| --- | --- |
| Cc1nc(C)n(-c2cc([C@@H]3C[C@H]3c3nc4ccccc4n3C)nc(C(F)(F)F)n2)n1 (relative stereo) | 151 to 153 |
| CC(C)(C)c1cc(SC2CCOC2=O)cc(C(C)(C)C)c1O (centres undefined) | 98 |
| COc1ccccc1CNc1ccc2cc(Nc3cc(C)on3)ccc2n1 | 132 |
| FC(F)(F)c1cccc(-c2nnc(Cl)cc2Cl)c1 | 80 to 81.5 |
| O=C(c1cccnc1)N1CCC(c2ccccc2)=N1 | 87 to 89 |
| N#Cc1ccc(C[C@]23C[C@@H](O)CN2C(=O)N(c2cc(Cl)nc(Cl)c2)C3=O)cc1 | 97.6 |
| CC(=O)c1cc(N(C)C)ccc1NC(=O)c1cccc(OCc2ccccc2)c1 | 147 to 149 |
| Cc1[nH]c(=O)cnc1-c1ccc(NC(=O)OCc2ccccc2)cc1 | 232 |
| Cc1ccc(C(=O)NCc2ccccc2)cc1-c1nc(NCCN(C)C(=O)OC(C)(C)C)nc2c1CNC(=O)N2c1c(F)cccc1F | 160 to 163 |
| CCOC(=O)C1=C(COCc2nnn(CCNS(C)(=O)=O)n2)NC(C)=C(C(=O)OC)C1c1cccc(Cl)c1Cl (centres undefined) | 245 to 247 |
| Nc1nc(Cl)c(Cl)c(NCC2(CO)CCC2)n1 | 179 to 181 |
| COc1nc(Br)nc(OC)n1 | 118 to 120 |
| CC(C(=O)c1ccccc1)=C1CCCN1 | 91 to 92 |
| O=c1[nH]c2sc(I)nc2c2ccccc12 | > 250 |
| CCN1CCCC1CNC(=O)c1c(C)[nH]c(C=O)c1C (centres undefined) | 166 to 169 |
| Cc1cc(Oc2c(Cl)cc(C(F)(F)F)cc2Cl)nn1C(=O)NOC(C)(C)C | 92 to 94 |
| Cc1nc(=O)[nH]c2cc3c(cc12)OCO3 | 310 to 312 |
| Cc1ccc([N+](=O)[O-])cc1CCl | 56 to 62 |
| COc1ccc2c(c1)C1=NNC(c3ccncc3)C1CCC2 (centres undefined) | 162 to 166 |
| COc1ccc2c(c1[N+](=O)[O-])CNCC(=O)N2 | 220 to 222 |

| SMILES | melting point [°C] |
| --- | --- |
| CC(=O)c1ccc(NC(=O)NCCCN(CCCNC(=O)Nc2ccc(C(C)=O)cc2)CCCNC(=O)Nc2ccc(C(C)=O)cc2)cc1 | 184 to 185 |
| COC(=O)c1ccc(OCC=C(C)CCC=C(C)C)cc1 | 30 to 33 |
| CCc1nc(=O)[nH]c2sccc12 | 217 to 220 |
| CC(C)(C)OC(=O)NCC12CCC1CNC2 (centres undefined) | 83 to 86 |
| CCOC(=O)c1ncc2[nH]c3ccc(C4COC(O)C4)cc3c2c1C (centres undefined) | 177 to 180 |
| CCOC(=O)C1=C(C)NC(CN(C)C)=C(C(=O)OCC)C1c1ccccc1Br (centres undefined) | 142 to 143 |
| COc1ccc(CN(C)CCc2ccc(NC(=O)c3cccc4c(=O)c5c(OC)c(OC)c(OC)cc5[nH]c34)cc2)cc1OC | 158 |
| O=C(Nc1cccnn1)N1CCN(c2nc(-c3ccccc3)ns2)CC1 | 185 to 186 |
| CC1CC(c2cc3ccc(F)cc3s2)CCN1 (centres undefined) | 34 to 37 |
| CC(=O)OCc1[nH]c(C(=O)OCc2ccccc2)c(C)c1C(C)=O | 97 to 100 |
| Cc1c2n(c3ccccc13)C(=O)C(Cn1ccnc1C)CC2 (centres undefined) | 120 to 121 |
| COc1ccc(-c2c(Cl)c(CN3C(=O)CSC3=O)nc3sc4c(c23)CCSC4)cc1 | 208 to 209 |
| Cc1c[nH]c2cccc(C3CCCNC3)c12 (centres undefined) | 150 |
| Fc1cnccc1Nn1ccc2cc(OCc3ccccc3)ccc21 | 140 |
| CCOC(=O)Cn1c(=O)c(=O)[nH]c2ccc3ccc(N)cc3c21 | > 250 |
| CCOc1nn(Cc2ccc(OC)c(OCc3nc(-c4ccccc4)oc3C)c2)cc1CCC(=O)O | 136 to 137 |
| COc1ccc(C2=CCN(CCCN3c4cccc5cccc(c45)S3(=O)=O)CC2)cc1 | 178 |
| COc1ncnc(OC)c1N | 94 to 96 |
| CCOC(=O)Cc1ccc(CNC(=O)C=Cc2ccc3[nH]cc(CC#N)c3c2)cc1 | 125 to 130 |

Results, then the compound that gave them:

| melting point [°C] | SMILES |
| --- | --- |
| 60 to 80 | O=C(O)c1nn(-c2ccc(Cl)cc2Cl)c(-c2ccc(Cl)cc2)c1CF |
| 212 | COC(=O)c1ccc(C(=O)c2ccc(NC(C)=O)cc2)cc1 |
| 160 to 163 | CCc1nc2c(N)nc3ccccc3c2n1CCOCCS(C)(=O)=O |
| 194 to 195 | O=C1C(=O)c2ccccc2C2=C1SCC1(CCCCC1)O2 |
| 75 to 77 | Cc1nc(C)c(C(=O)OCC2CCCO2)c(-c2cccc([N+](=O)[O-])c2)c1C(=O)OCC1CCCO1 (centres undefined) |
| 128 to 134 | COCCN(C)Cc1ccnc2c(NC(=O)c3c(Cl)cccc3Cl)cccc12 |
| 144 to 145 | COc1ccc(N2CCN(c3c(C)c(C)c4c(c3C)C(CN3CCCCC3)C(C)(C)O4)CC2)cc1 (centres undefined) |
| 108 to 109 | Cc1cnnc2c1C(=O)CC(c1ccccc1Cl)C2 (centres undefined) |
| 234 to 235 | CCONC(=O)c1cc(NC(C)=C2C(=O)OC(=O)C(C(C)=O)=C2O)cc(C(=O)NOCC)c1 |
| 128 to 132 | N#CC(O)C(Cc1ccccc1)N1C(=O)c2ccccc2C1=O (centres undefined) |
| 139 | Cn1nc(C(F)(F)F)cc1Oc1cc(C#N)cc(Oc2cc(C(F)(F)F)nn2C)c1 |
| > 400 | CC(C)OP(=O)(OC(C)C)c1nc(N)nc(N)n1 |
| 94 | CC(C)(F)CC(=O)c1cc(C(C)(C)C)c(O)c(C(C)(C)C)c1 |
| 216 to 217 | N#Cc1cc(F)ccc1Oc1ccc(-c2cn(C3CCOCC3)c3ncnc(N)c23)cc1 |
| 140 to 142 | CCS(=O)(=O)Nc1cc(-c2ncnc(C(F)F)c2Cl)c(Cl)cc1Cl |
| 170 to 171 | NC(=S)NC(=O)c1ccccc1 |
| 184 to 185 | CC(=O)Oc1cc2c(c3ccccc13)Nc1ccccc1S2 |
| 144 to 145 | COc1nc(OC)c(C(C)C)c(C(=O)c2cc(C)cc(C=CC#N)c2)n1 |
| 218 | CC(=O)C1=C(O)C(=C(C)Nc2cccc(NC(=O)C(O)CO)c2)C(=O)OC1=O (centres undefined) |
| 71.5 to 72.5 | COCCOc1cc(Cl)cnc1[N+](=O)[O-] |

| melting point [°C] | SMILES |
| --- | --- |
| 75 to 77 | COC(=O)CCSCC(=O)c1cc2c(cc1Cl)NC(=O)C2 |
| 66 to 67 | CCCCCCCCCCCCCCOc1cccc(C(=O)N(Cc2ccccn2)C(C)=O)c1 |
| 156 to 158 | O=c1ccn(-c2cccc(C(F)(F)F)c2)nc1-c1c(F)cnn1-c1ccccc1 |
| 112 to 118 | Cc1cc(C(=O)O)ccc1OCCNC(=O)C1Cc2ccccc2N1S(=O)(=O)c1ccc(-c2ccc(F)cc2)cc1 (centres undefined) |
| 111 to 112 | CC(C)n1nc(-c2sc(C(=O)N3CCCCC3)nc2-c2ccccc2)ccc1=O |
| 197 to 198 | c1cc(-c2cncnc2)cc(-n2cnc3cc(-n4cccc4)ccc32)c1 |
| 125 to 129 | SCC1=NC2CCCCC2N1 (centres undefined) |
| 68 to 70 | O=[N+]([O-])c1c(CBr)cccc1Oc1ccccc1Cl |
| 245 to 246 | COc1ccccc1C(=O)c1sc(Nc2cccnc2)nc1N |
| 128 to 129 | CCOC(=O)Cn1c(=S)c2ccccc2n(Cc2ccc(Cl)c(Cl)c2)c1=O |
| 145 to 146 | CC(C)=CCc1cc(-c2oc3c(CC=C(C)C)c(O)cc(O)c3c(=O)c2O)ccc1O |
| 77.5 to 80 | O=C1CCC[C@@H](c2ccc(Cl)cc2)N1c1ccccc1 |
| 196 to 198 | Cc1c(C(N)=NO)ncn1-c1cccc(Oc2ccccc2)c1 |
| 185 to 186 | COc1ccc(C2=NN(C3CCN(C(=O)N4CCOCC4)CC3)C(=O)[C@H]3CC=CC[C@@H]23)cc1Cl (relative stereo) |
| 239 to 242 | O=C1O[C@@H](Cn2ccnn2)CN1c1ccc(-c2ccc(C3=NO[C@H](Cn4ccnc4)C3)nc2)c(F)c1 |
| 80 to 82 | O=C(O)C(Cc1ccc(C(F)(F)F)cc1Br)C(=O)O |
| 71 to 74 | Fc1ccc(-c2ccc3[nH]ccc3c2)cc1 |
| 74 to 75 | COC(=O)Cc1cn(-c2ccccc2)nc1OCc1ccccc1 |
| 221 | CC(C)NC(=O)NNC=NC(=O)c1nc(F)c(N)nc1N |
| 122 to 128 | COC(=O)CNC(=O)CNC(=O)CNC(=O)OC(C)(C)C (Boc-Gly-Gly-Gly-OMe) |
